Test results published in ChEMBL document CHEMBL1201862, “PubChem BioAssay data set” (2004).
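Tested at 5 concentrations; 48 h exposure; 96-well plates; endpoints linearly interpolated, else capped at highest concentration. At the GI50, growth is halved.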 Active and inactive are the calls of the source. Cut-off read from the data, not from the text of the source: active = GI50 up to about 1.1 µM and inactive = higher.

Experiments:
Experiment in all cases: growth of human tumour cells (NCI), 48 h
[1] = system: OVCAR-3
[2] = system: MOLT-4
[3] = system: NCI-H226
[4] = system: SNB-19
[5] = system: OVCAR-8
[6] = system: NCI/ADR-RES
[7] = system: PC-3
[8] = system: HCT-116
[9] = system: HCT-15
[10] = system: OVCAR-5
[11] = system: UACC-257
[12] = system: OVCAR-4
[13] = system: HCC 2998
[14] = system: SK-MEL-28
[15] = system: HL-60
[16] = system: RPMI-8226
[17] = system: KM12
[18] = system: HOP-62
[19] = system: SNB-75
[20] = system: RXF 393

Row | SMILES | GI50 [1] | GI50 [2] | GI50 [3] | GI50 [4] | GI50 [5] | GI50 [6] | GI50 [7] | GI50 [8] | GI50 [9] [µM] | GI50 [10] | GI50 [11] | GI50 [12] | GI50 [13] | GI50 [14] | GI50 [15] | GI50 [16] | GI50 [17] | GI50 [18] | GI50 [19] | GI50 [20]
1 | COc1cccc(/N=N/C(=NNC(=O)c2ccc(C)cc2)c2ccc(N(C)C)cc2)c1 | 65.2 µM (inactive) | > 100 µM (inactive) | > 100 µM (inactive) | > 100 µM (inactive) | > 100 µM (inactive) | > 100 µM (inactive) | > 100 µM (inactive) | > 100 µM (inactive) | > 100 | > 100 µM (inactive) | > 100 µM (inactive) | > 100 µM (inactive) | > 100 µM (inactive) | > 100 µM (inactive) | > 100 µM (inactive) | > 100 µM (inactive) | > 100 µM (inactive) |  |  | 
2 | Cc1cc(C)c2c(c1)C/C(=C\c1cccc(C)c1C(=O)O)C2=O | 54.5 µM (inactive) | 50.5 µM (inactive) | 44.2 µM (inactive) | 59.6 µM (inactive) | 52.7 µM (inactive) |  | 39.5 µM (inactive) | 45.9 µM (inactive) | 49.5 | 99.5 µM (inactive) | 33.3 µM (inactive) | 75 µM (inactive) | 66.5 µM (inactive) | 87.9 µM (inactive) | > 100 µM (inactive) | 68.5 µM (inactive) | 51.6 µM (inactive) | 55 µM (inactive) | 55 µM (inactive) | 72.9 µM (inactive)
3 | C[C@H](c1ccccc1)n1c(N)c(-c2nc3ccccc3s2)c2ccc([N+](=O)[O-])cc2c1=O | 4.57 µM (inactive) | 2.32 µM (inactive) | 4.65 µM (inactive) | 3.49 µM (inactive) | 3.83 µM (inactive) | 2.84 µM (inactive) | 3.09 µM (inactive) | 1.91 µM (inactive) | 4.76 | 11.5 µM (inactive) | 11.8 µM (inactive) | 4.34 µM (inactive) | 4.4 µM (inactive) | 3 µM (inactive) | 0.327 µM (active) | 0.324 µM (active) | 4.45 µM (inactive) | 11.6 µM (inactive) | 4.58 µM (inactive) | 
4 | O=C1C=C/C(=N\N=C(c2ccccc2)c2ccccc2)O1 |  | > 10 µM (inactive) |  |  | > 10 µM (inactive) |  | > 10 µM (inactive) |  | > 10 |  | > 10 µM (inactive) | > 10 µM (inactive) | > 10 µM (inactive) | > 10 µM (inactive) | > 10 µM (inactive) | > 10 µM (inactive) | > 10 µM (inactive) | > 10 µM (inactive) | > 10 µM (inactive) | > 10 µM (inactive)
5 | Oc1ccc2ccccc2c1/N=N\c1cccc2ccccc12 | > 100 µM (inactive) | 93.1 µM (inactive) | > 100 µM (inactive) | > 100 µM (inactive) | > 100 µM (inactive) | > 100 µM (inactive) | > 100 µM (inactive) | > 100 µM (inactive) | > 100 | > 100 µM (inactive) | > 100 µM (inactive) | > 100 µM (inactive) |  | > 100 µM (inactive) | 52.8 µM (inactive) | > 100 µM (inactive) | > 100 µM (inactive) | > 100 µM (inactive) | > 100 µM (inactive) | > 100 µM (inactive)
6 | COc1cc2cc(C(=O)N3CC(CCl)c4c3cc(NC(=O)C(C)Nc3c([N+](=O)[O-])cc(C(=O)NCCN(C)C)cc3[N+](=O)[O-])c3ccccc43)[nH]c2c(OC)c1OC (stereo unspecified) | 0.201 µM (active) | 0.0244 µM (active) | 0.113 µM (active) | 0.14 µM (active) | 0.132 µM (active) | 0.441 µM (active) | 0.177 µM (active) | 0.0743 µM (active) | 0.164 | 0.0555 µM (active) | 0.182 µM (active) | 0.191 µM (active) | 0.0315 µM (active) | 0.123 µM (active) |  |  | 0.119 µM (active) | 0.0619 µM (active) | 0.0272 µM (active) | 
7 | CS/C(=N/S(=O)(=O)c1ccc(Cl)cc1)NCCCN/C(=N\S(=O)(=O)c1ccc(Cl)cc1)SC | 6.93 µM (inactive) | 4.8 µM (inactive) |  | 80.7 µM (inactive) | 19.8 µM (inactive) | 12.9 µM (inactive) | 4.62 µM (inactive) | 21.6 µM (inactive) | 7.76 | 25.2 µM (inactive) | 6.15 µM (inactive) | 3.56 µM (inactive) | 22.5 µM (inactive) | 25.8 µM (inactive) | 8.38 µM (inactive) | 13.7 µM (inactive) |  | 24.8 µM (inactive) | 15.8 µM (inactive) | 
8 | CCN(CC)CCC1CCCCN1CC(=O)N1c2cc(Cl)ccc2NC(=O)CC1C (stereo unspecified) | > 100 µM (inactive) | > 100 µM (inactive) | > 100 µM (inactive) | > 100 µM (inactive) | > 100 µM (inactive) |  | > 100 µM (inactive) | > 100 µM (inactive) | > 100 | > 100 µM (inactive) |  | > 100 µM (inactive) | > 100 µM (inactive) | > 100 µM (inactive) | > 100 µM (inactive) | > 100 µM (inactive) | > 100 µM (inactive) | > 100 µM (inactive) |  | > 100 µM (inactive)
9 | COC(=O)C1CCC(=O)N1C(c1cc(OC)c(OC)c(OC)c1)c1cccc2ccccc12 (stereo unspecified) | > 100 µM (inactive) | 13.8 µM (inactive) | > 100 µM (inactive) | > 100 µM (inactive) | > 100 µM (inactive) | 39 µM (inactive) | > 100 µM (inactive) | > 100 µM (inactive) | 71.1 | > 100 µM (inactive) | > 100 µM (inactive) |  |  | > 100 µM (inactive) | 11.7 µM (inactive) | 76.6 µM (inactive) | > 100 µM (inactive) | > 100 µM (inactive) | 61 µM (inactive) | 
10 | Nc1ncnc2c1ncn2-c1ccc([N+](=O)[O-])cn1 | > 100 µM (inactive) |  | > 100 µM (inactive) | > 100 µM (inactive) | > 100 µM (inactive) | > 100 µM (inactive) |  | > 100 µM (inactive) | > 100 | > 100 µM (inactive) | > 100 µM (inactive) | > 100 µM (inactive) | > 100 µM (inactive) | > 100 µM (inactive) | > 100 µM (inactive) | > 100 µM (inactive) | > 100 µM (inactive) | > 100 µM (inactive) | 41.4 µM (inactive) | > 100 µM (inactive)
11 | CCOP(=O)(OCC)C1CC(O)CN1OC(=O)C(C)(C)C (stereo unspecified) | > 100 µM (inactive) | > 100 µM (inactive) | > 100 µM (inactive) | > 100 µM (inactive) | > 100 µM (inactive) | > 100 µM (inactive) | > 100 µM (inactive) | > 100 µM (inactive) | > 100 | > 100 µM (inactive) | > 100 µM (inactive) | > 100 µM (inactive) |  | > 100 µM (inactive) |  | > 100 µM (inactive) | > 100 µM (inactive) | > 100 µM (inactive) | > 100 µM (inactive) | 
12 | CS(=O)(=O)OCOS(C)(=O)=O | > 100 µM (inactive) | 22.9 µM (inactive) | 40.6 µM (inactive) | > 100 µM (inactive) | > 100 µM (inactive) | > 100 µM (inactive) | > 100 µM (inactive) | > 100 µM (inactive) | 59.3 | > 100 µM (inactive) | > 100 µM (inactive) | > 100 µM (inactive) | > 100 µM (inactive) | > 100 µM (inactive) | 26.7 µM (inactive) | 31.9 µM (inactive) | > 100 µM (inactive) | > 100 µM (inactive) |  | 
13 | COC(=O)C(Cc1c(C2Nc3ccccc3C2CC(NC(=O)CNC(C)=O)C(=O)OC)[nH]c2ccccc12)NC(=O)CNC(C)=O (stereo unspecified) |  |  | > 100 µM (inactive) | > 100 µM (inactive) | > 100 µM (inactive) | > 100 µM (inactive) |  | > 100 µM (inactive) | > 100 | > 100 µM (inactive) | > 100 µM (inactive) | > 100 µM (inactive) | > 100 µM (inactive) | > 100 µM (inactive) | > 26.6 µM (inactive) | > 100 µM (inactive) | > 100 µM (inactive) |  | 7.82 µM (inactive) | > 100 µM (inactive)
14 | COC(=O)C(NC(=O)C12CCC(C)(C(=O)O1)C2(C)C)c1cc(C(C)(C)C)c(O)c(C(C)(C)C)c1 (stereo unspecified) | > 100 µM (inactive) | 42.2 µM (inactive) | > 100 µM (inactive) | > 100 µM (inactive) | > 100 µM (inactive) | > 100 µM (inactive) | 67 µM (inactive) | 64.3 µM (inactive) | 91.2 | > 100 µM (inactive) |  | > 100 µM (inactive) |  | > 100 µM (inactive) | 4.95 µM (inactive) | 14.7 µM (inactive) | 23.5 µM (inactive) | > 100 µM (inactive) | > 100 µM (inactive) | 83.2 µM (inactive)
15 | CSc1[nH]nc(N)c1C(=O)Nc1ccc(C)cc1 | 77.3 µM (inactive) | 26.2 µM (inactive) | > 100 µM (inactive) | > 100 µM (inactive) |  |  | 33.7 µM (inactive) | 75.2 µM (inactive) | 51.3 | 54.7 µM (inactive) | 62.4 µM (inactive) | 46.2 µM (inactive) | 76.9 µM (inactive) | 48.8 µM (inactive) | 39.3 µM (inactive) | 51.3 µM (inactive) |  | > 100 µM (inactive) |  | 97.9 µM (inactive)
16 | Cc1ccc2c(c1)[nH]c(=S)n2C=C(C(N)=O)C(N)=O | > 100 µM (inactive) |  | > 100 µM (inactive) | > 100 µM (inactive) | > 100 µM (inactive) | > 100 µM (inactive) |  | > 100 µM (inactive) | > 100 | > 100 µM (inactive) | > 100 µM (inactive) | > 100 µM (inactive) | > 100 µM (inactive) | > 100 µM (inactive) | 5.66 µM (inactive) |  | > 100 µM (inactive) | > 100 µM (inactive) | > 100 µM (inactive) | > 100 µM (inactive)
